Patent US20130303497A1, “DEUTERATED 5-HT1A RECEPTOR AGONISTS” (priority 2010, published 2013)
Where two headings read alike, the source gives them in different places.

Columns and labels:
human plasma proteins = assay: Plasma protein binding, equilibrium dialysis; type: in vitro ADME; settings: for degree of protein binding in human plasma compared to tandospirone: One-way ANOVA with Dunnett's test vs Tandospirone
Method: (§1) Human plasma was obtained from Bioreclamation (Lot No. BRH354026). A 96-Well Micro-equilibrium Dialysis Device (HT-Dialysis LLC, Model HTD 96 b) separated by dialysis membrane (MWCO 12-14k, HT Dialysis), was used to study the protein binding. The dialysis membrane strips were soaked in distilled water for 1 hour and then in 20% ethanol in water (v/v) for another 20 minutes. The membrane strips were subsequently rinsed 20 min in pure water before use. The studied compounds were individually spiked into human plasma to a final concentration of 0.2 μM, and pre-incubated for 30 min. Aliquots (150 μL) of phosphate buffer (100 mM sodium phosphate, pH 7.4) and spiked plasma was placed in the receiver and donor compartment, respectively. The dialysis block was sealed and placed in a shaker (150 rpm) for 6 hours at 37° C. Each experiment was performed in triplicates (n=3). Aliquot 50 μL from both the donor sides and receiver sides of the dialysis devise was transferred into new sample preparation plates and mixed with the aliquots with same volume of opposite matrixes (blank buffer to plasma and visa verse). […] Hundred μL of the supernatant was transferred to a new 96-well plate and mixed with 200 μL of Milli-Q water containing 0.1% FA. Drug content was quantified with LC/MS/MS (Sciex API4000).
(§2) Percent bound to plasma is calculated as follows:
(§3) % Bound=100−(100×[Receiver]6h/[Donor]6h.) Equation 2
(§4) Mass recovery of test compound from the HTDialysis after 6 h is calculated as follows:
(§5) % Recovery=100×([Donor]6h+[Receiver]6h)/[Donor]0h Equation 3

[1] = Plasma protein binding, equilibrium dialysis; type: in vitro ADME; settings: human plasma dialysed against phosphate buffer, pH 7.4, mass recovery from the dialysis device
Method: as §1, §2, §3, §4, §5

in vitro = settings: pH 7.4
Method: The mixture of compound and microsome was pre-incubated for 30 minutes, initiating the reaction by addition of NADPH regenerating system (1 unit/mL Isocitric dehydrogenase). At time point 0, 5, 15, 30, 45 and 60 minutes the reactions were stopped by addition of 300 μL cold acetonitrile ([…]) containing 100 ng/mL tolbutamide as internal standard (IS). The samples were immediately mixed and centrifuged at 4000 rpm for 20 min. 100 μL supernatant was transferred to a fresh 96-well containing 300 μL HPLC-grade water for quantitative analysis by LC-MS/MS (LC: Shimatzu LC 10 AD; MS/MS detection: Sciex API4000), using positive ion electrospray. Triplicate experiments (n=3) was performed for each compound. A single-exponential curve (Ct=C0*e^−kt) was fitted to the concentration-time data points to calculate the elimination rate constant (k). The following equation 1 was used to calculate the total hepatic intrinsic clearance (CLint): […]

[2] = test system: serotonin 5-HT1A receptor; settings: partial agonist; Tanaka et al. 1995 and Yabuuchi et al. 2004; cited from earlier work
[3] = target: serotonin 5-HT1A receptor; settings: Hamik et al. 1990; read-out: Ki affinity value; cited from earlier work
MDR1 (P-gp) = assay: Permeability over MDR1-transfected MDCK cell monolayer; type: in vitro ADME, Canine; settings: dog, donor and receiver chamber, MDR1-MDCK monolayer, 2 μM
Method: (§6) The ability of molecules to pass a biological membrane, like the gastro-intestinal epithelia and the blood-brain barrier endothelia is essential for orally delivered drugs targeting diseases in the brain. The Madin-Darby Canine Kidney (MDCK) cell line is used as an industry standard to evaluate biomembrane passage properties of drugs. […] Test compounds were diluted with the transport buffer (HBSS+1% BSA) from a 10 mM stock solution to a concentration of 2 μM and applied to the apical (A) or basolateral (B) side of the cell monolayer.
(§7) In addition, the efflux ratio of each compound was also determined.
(§8) The apparent biomembrane permeability coefficient Papp (cm/s) was calculated using the equation:
(§9) Papp=(dCr/dt)×Vr/(A×C0) Equation 4
(§10) Where dCr/dt is the cumulative concentration of compound in the receiver chamber as a function of time (μM/s); Vr is the solution volume in the receiver chamber (0.075 mL on the apical side, 0.25 mL on the basolateral side); A is the surface area for the transport, i.e. 0.084 cm2 for the area of the monolayer; Co is the initial concentration in the donor chamber.
(§11) The efflux ratio was calculated using the equation:
(§12) Efflux Ratio=Papp(BA)/Papp(AB) Equation 5
(§13) Percent recovery was calculated using the equation:
(§14) % Recovery=100×[(Vr×Cr)+(Vd×Cd)]/(Vd×C0) Equation 6
(§15) Where Vd is the volume in the donor chambers (0.075 mL on the apical side, 0.25 mL on the basolateral side); Cd and Cr are the final concentrations of transport compound in donor and receiver chambers, respectively.

[4] = as above; type: in vitro ADME, Canine; settings: dog; MDR1-MDCK cell monolayer, 2 μM, 150-minute incubation, apical to basolateral
Method: as §6, §7, §8, §9, §10, §11, §12, §13, §14, §15

MDR1-MDCK cell monolayer = assay: as above; type: in vitro ADME, Canine
Method: as §6, §7, §8, §9, §10, §11, §12, §13, §14, §15

[5] = in humans; Nakashima and Kanemaru 1992; cited from earlier work
plasma proteins = settings: Miller et al., 1992; cited from earlier work
[6] = pH 7.4, 0.2 μM, equilibrium dialysis, 37° C., n=3, read-out: Protein binding (%) (converted)

Row | SMILES | fraction unbound at 6 h, 0.2 μM (human plasma proteins; [6]) | recovery at 6 h, 0.2 μM [1] | CLint scaled at 1 μM (in vitro; human, microsomes) | degree of protein binding in human plasma compared to tandospirone (human plasma proteins) | other results
1 | [2H]C([2H])(CCCN1C(=O)[C@@]2([2H])[C@H]3CC[C@H](C3)[C@@]2([2H])C1=O)N1CCN(c2ncccn2)CC1 [Compound XV, (1R,2R,6S,7S)-4-{4-[4-(pyrimidin-2-yl)piperazin-1-yl]-(4-^2H2)butyl}-(2,6-^2H2)-4-azatricyclo[5.2.1.0^2,6]decane-3,5-dione] | 0.38 | 92% | 229 mL/min/kg |  | 
2 | O=C1[C@@H]2[C@@H]3CC[C@@H](C3)[C@@H]2C(=O)N1CCCCN1CCN(c2ncccn2)CC1 [Tandospirone, (1R,2R,6S,7S)-4-{4-[4-(pyrimidin-2-yl)piperazin-1-yl]butyl}-4-azatricyclo[5.2.1.0^2,6]decane-3,5-dione] |  |  |  |  | intrinsic activity [2]: 55-85%; Ki [3]: 27 ± 5 nM
3 | [2H]C([2H])(CCCN1C(=O)[C@@H]2[C@@H]3CC[C@@H](C3)[C@@H]2C1=O)N1CCN(c2ncccn2)CC1 [Compound II, (1R,2R,6S,7S)-4-{4-[4-(pyrimidin-2-yl)piperazin-1-yl]-(4,4-^2H2)butyl}-4-azatricyclo[5.2.1.0^2,6]decane-3,5-dione] | 0.42 | 95% | 235 mL/min/kg | statistically significant lower degree of protein binding | 
4 | O=C(O)Cc1ccccc1Nc1c(Cl)cccc1Cl [Diclofenac, reference compound] |  |  | 90 mL/min/kg |  | 
5 | CC(Cc1ccc(O)cc1)NCC(O)c1cc(O)cc(O)c1 (stereo not drawn) [Fenoterol] |  |  |  |  | recovery at 150 min, 2 μM (MDR1 (P-gp)): 109%; Papp A→B at 150 min, 2 μM [4]: 0.92 ×10⁻⁶ cm/s
6 | C[C@]12CC[C@H]3[C@@H](CCC4=CC(=O)CC[C@@]43C)[C@@H]1CC[C@@H]2O [Testosterone, reference compound] |  |  |  |  | CLint scaled at 1 μM (in vitro): 70 mL/min/kg
7 | [2H]c1cnc(N2CCN(C([2H])([2H])CCCN3C(=O)[C@@H]4[C@@H]5CC[C@@H](C5)[C@@H]4C3=O)CC2)nc1 [Compound III, (1R,2R,6S,7S)-4-{4-[4-((5-^2H)pyrimidin-2-yl)piperazin-1-yl]-(4,4-^2H2)butyl}-4-azatricyclo[5.2.1.0^2,6]decane-3,5-dione] | 0.51 | 86% | 219 mL/min/kg | statistically significant lower degree of protein binding | Papp, A-B compared to tandospirone (MDR1-MDCK cell monolayer; P<0.05, One-way ANOVA with Dunnett's test): statistically significant higher Papp, A-B; recovery at 150 min, 2 μM (MDR1 (P-gp); MDCK-MDR1 cell monolayer): 112%; Papp A→B at 150 min, 2 μM [4]: 35 ×10⁻⁶ cm/s
8 | CC(C)NCC(O)COc1cccc2ccccc12 (stereo not drawn) [Propranolol] |  |  |  |  | B-A/A-B efflux ratio (MDR1-MDCK cell monolayer; MDR1-MDCK cell monolayer, 2 μM): 62; Papp, A-B (×10^−6 cm/s) (MDR1-MDCK cell monolayer; MDR1-MDCK cell monolayer, 2 μM, 150-minute incubation, apical to basolateral): 15 ×10^−6 cm/s
9 | [2H]c1cnc(N2CCN(C([2H])CCCN3C(=O)[C@@H]4[C@@H]5CC[C@@H](C5)[C@@H]4C3=O)CC2)nc1 (stereo partly drawn) [IX, (1R,2R,6S,7S)-4-{4-[4-((5-^2H)pyrimidin-2-yl)piperazin-1-yl]-(4-^2H)butyl}-4-azatricyclo[5.2.1.0^2,6]decane-3,5-dione] |  |  |  | statistically significant lower degree of protein binding | 
10 | [2H]C([2H])(CN1C(=O)[C@@H]2[C@@H]3CC[C@@H](C3)[C@@H]2C1=O)C([2H])([2H])C([2H])([2H])N1CCN(c2ncccn2)CC1 [XVIII, (1R,2R,6S,7S)-4-{4-[4-(pyrimidin-2-yl)piperazin-1-yl]-(2,2,3,3,4,4-^2H6)butyl}-4-azatricyclo[5.2.1.0^2,6]decane-3,5-dione] | 0.47 | 111% | 224 mL/min/kg | statistically significant lower degree of protein binding | 
11 | O=C1[C@@H]2[C@H]3CC[C@H](C3)[C@@H]2C(=O)N1CCCCN1CCN(c2ncccn2)CC1 [Tandospirone, (1R,2R,6S,7S)-4-{4-[4-(pyrimidin-2-yl)piperazin-1-yl]butyl}-4-azatricyclo[5.2.1.0^2,6]decane-3,5-dione] |  | 82% | 282 mL/min/kg |  | elimination half-life in the systemic circulation [5]: 1 to 2 h; Protein binding (%) (human plasma proteins; 0.2 μM, equilibrium dialysis, 37° C., n=3): 70%; fraction unbound at 6 h, 0.2 μM (human plasma proteins; human, pH 7.4, read-out: observed unbound fraction): 0.3; unbound fraction reported in the literature (plasma proteins): 30.4%; recovery at 150 min, 2 μM (MDR1 (P-gp); MDCK-MDR1 cell monolayer): 107%; Papp A→B at 150 min, 2 μM [4]: 30 ×10⁻⁶ cm/s
12 | [2H]c1cnc(N2CCN(C([2H])([2H])CCCN3C(=O)[C@@H]4[C@H](C3=O)[C@H]3C[C@@H]4C([2H])C3[2H])CC2)nc1 (stereo partly drawn) [VII, (1R,2R,6S,7S)-4-{4-[4-((5-^2H)pyrimidin-2-yl)piperazin-1-yl]-(4,4-^2H2)butyl}-(8,9-^2H2)-4-azatricyclo[5.2.1.0^2,6]decane-3,5-dione] | 0.31 | 94% | 231 mL/min/kg |  | 
13 | [2H]C1C([2H])[C@@H]2C[C@H]1[C@@H]1C(=O)N(CCCC([2H])([2H])N3CCN(c4ncccn4)CC3)C(=O)[C@@H]12 (stereo partly drawn) [VI, (1R,2R,6S,7S)-4-{4-[4-(pyrimidin-2-yl)piperazin-1-yl]-(4,4-^2H2)butyl}-(8,9-^2H2)-4-azatricyclo[5.2.1.0^2,6]decane-3,5-dione] | 0.43 | 96% | 240 mL/min/kg | statistically significant lower degree of protein binding | 
